{
  "source": "patent US20070167492A1",
  "about": "“Molluscicidal agents” (priority 2003, published 2007)",
  "format_in_all_cases": "in vivo",
  "key": {"[1]": {"tested_on": "Winter wheat (Kampa race) seeds", "assay": "Seed germination test of treated winter wheat seeds (rolled in paper)", "conditions": "3x50 seeds, 6 days at 22° C.", "procedure": "(§1) Winter wheat (Kampa race; thousand grain weight of 51 grams) was used in an experiment to test the efficacy of the compositions of the present inventions in relation to known molluscicidal compounds. The seeds were disinfected for soil and germ moulds with 2 ml of Beret Gold (comprising 25 g/l of the fungicide fludioxonil) per kg of seed.\n(§2) Sepiret® was added to all dry disinfections, and is the coating that was added to all agents of which the formulation was not suitable for coating.\nTable 2 provides an overview of the amounts of diluent water and Sepiret® used for treating the wheat seeds. Table 2 further provides the quality of the coating and the percentages of germinating seeds in a seed germination test. In this test, the percentage of germination of 3×50 seeds, rolled in paper, was determined after 6 days at 22° C. (continuously) and a 16 hours light regime."}, "[2]": {"tested_on": "Deroceras reticulatum (grey field slug)", "assay": "Example 1: pot test, treated winter wheat seed with 5 adult slugs per pot, 14 days", "procedure": "as §1, §2\nThe seeds were sown in earthenware pots with an internal diameter of 20 cm and a height of 18 cm, filled with 7 cm of potting soil (Trio BV, Weesp, The Netherlands) and with a top 2 cm of white quartz sand. A total of 40 seeds was placed in each pot, in a pattern of concentric circles on top of the quartz sand, the germ facing upwards. To each pot a total of 5 adult specimens of the test slug Deroceras reticulatum (grey field slug) were added. The pots were incubated at ±15° C. with a relative humidity of ±90% and light regime of ±12 hours light/12 hours dark, without artificial lighting. The pots were not irrigated overhead. In total, 4 parallel tests were performed for each test.\nFollowing the addition of the slugs, the number of damaged seeds was counted after 2, 3, 7, 10 and 14 days. The number of plants present (germinated and not eaten or damaged by the slugs) was determined 3, 7, 10 and 14 days after the start of the test. […] The number of dead slugs was counted 2, 3, 7, 10 and 14 days after the start of the test (but not removed). Finally, on days 3, 7, 10 and 14 after the start of the test, the number fecal pellets was counted.\n(§3) The data were statistically analysed by using F-tests (α=0.05) and pair-wise Student-tests."}, "[3]": {"tested_on": "Deroceras reticulatum (grey field slug)", "assay": "Example 2: pot re-test, treated winter wheat seed with 5 adult slugs per pot, 7 days", "excerpt": "Based on the results of the experiment described in Example 1, a selection was made from the various test numbers of that experiment for re-testing, partly to confirm the conclusions of that experiment and to test the unexpected outcome of some test compounds.\nThe selection of test numbers (Test No.) used in the present experiment relative to those of the experiment described in Example 1 is shown in Table 7.\nThe same seeds as described in Example 1 were sown in earthenware pots with an internal diameter of 20 cm and a height of 18 cm, filled with 7 cm of potting soil (Trio BV, Weesp, The Netherlands) and with a top 2 cm of white quartz sand. A total of 40 winter wheat seeds was placed in each pot, in a pattern of concentric circles on top of the quartz sand, the germ of the seed facing upwards. To each pot a total of 5 adult specimens of the test slug Deroceras reticulatum (grey field slug) were added. The pots were incubated at 18-19° C. with a relative humidity of ±95% and light regime of ±18 hours light/6 hours dark, without artificial lighting. The pots were not irrigated overhead. In total, 4 parallel tests were performed for each test.\nThe number of damaged seeds was, the number of plants present (germinated and not eaten or damaged by the slugs), the number of dead slugs and of the number of fecal pellets were determined after 2, 3 and 7 days following the addition of the slugs.\nas §3"}, "[4]": {"conditions": "2 ml formulated per kg seed, 2 days after sowing"}, "[5]": {"conditions": "2 ml formulated per kg seed, 3 days after sowing"}, "[6]": {"conditions": "2 ml formulated per kg seed, 7 days after sowing"}, "[7]": {"conditions": "2 ml formulated per kg seed, 10 days after sowing"}, "[8]": {"conditions": "2 ml formulated per kg seed, 14 days after sowing"}, "[9]": {"conditions": "10 ml formulated per kg seed, 2 days after sowing"}, "[10]": {"conditions": "10 ml formulated per kg seed, 3 days after sowing"}, "[11]": {"conditions": "10 ml formulated per kg seed, 7 days after sowing"}, "[12]": {"conditions": "10 ml formulated per kg seed, 10 days after sowing"}, "[13]": {"conditions": "10 ml formulated per kg seed, 14 days after sowing"}, "[14]": {"conditions": "Example 2, 10 ml formulated per kg seed, 2 days after sowing"}, "[15]": {"conditions": "Example 2, 10 ml formulated per kg seed, 3 days after sowing"}, "[16]": {"conditions": "Example 2, 10 ml formulated per kg seed, 7 days after sowing"}},
  "data": [
    {"substance": "abamectine", "values": [
      {"measurement": "Percentage germinated", "setting": "[1]; 2 ml formulated per kg seed", "result": 47, "unit": "%"},
      {"measurement": "Percentage germinated", "setting": "[1]; 10 ml formulated per kg seed", "result": 2, "unit": "%"},
      {"measurement": "number of utilizable plants after 14 days", "setting": "[2]; 2 ml formulated per kg seed", "result": 0.8},
      {"measurement": "percentage of damaged seeds after 14 days", "setting": "[2]; 2 ml formulated per kg seed", "result": 93, "unit": "%"},
      {"measurement": "Mean number of damaged seeds per pot", "setting": "[2]; [4]", "result": 3.8},
      {"measurement": "Mean number of dead slugs per pot", "setting": "[2]; [4]", "result": 0},
      {"measurement": "Mean number fecal pellets per pot", "setting": "[2]; [5]", "result": 43},
      {"measurement": "Mean number of damaged seeds per pot", "setting": "[2]; [5]", "result": 14.3},
      {"measurement": "Mean number of dead slugs per pot", "setting": "[2]; [5]", "result": 0},
      {"measurement": "Mean number of plants present per pot", "setting": "[2]; [5]", "result": 6.3},
      {"measurement": "Mean number fecal pellets per pot", "setting": "[2]; [6]", "result": 119},
      {"measurement": "Mean number of damaged seeds per pot", "setting": "[2]; [6]", "result": 35.8},
      {"measurement": "Mean number of dead slugs per pot", "setting": "[2]; [6]", "result": 0},
      {"measurement": "Mean number of plants present per pot", "setting": "[2]; [6]", "result": 0},
      {"measurement": "Mean number fecal pellets per pot", "setting": "[2]; [7]", "result": 133},
      {"measurement": "Mean number of damaged seeds per pot", "setting": "[2]; [7]", "result": 35.5},
      {"measurement": "Mean number of dead slugs per pot", "setting": "[2]; [7]", "result": 0.3},
      {"measurement": "Mean number of plants present per pot", "setting": "[2]; [7]", "result": 0.8},
      {"measurement": "Mean number fecal pellets per pot", "setting": "[2]; [8]", "result": 140},
      {"measurement": "Mean number of damaged seeds per pot", "setting": "[2]; [8]", "result": 37.0},
      {"measurement": "Mean number of dead slugs per pot", "setting": "[2]; [8]", "result": 0.3},
      {"measurement": "Mean number of plants present per pot", "setting": "[2]; [8]", "result": 0.8},
      {"measurement": "number of utilizable plants after 14 days", "setting": "[2]; 10 ml formulated per kg seed", "result": 9.0},
      {"measurement": "percentage of damaged seeds after 14 days", "setting": "[2]; 10 ml formulated per kg seed", "result": 61, "unit": "%"},
      {"measurement": "Mean number of damaged seeds per pot", "setting": "[2]; [9]", "result": 1.5},
      {"measurement": "Mean number of dead slugs per pot", "setting": "[2]; [9]", "result": 0.3},
      {"measurement": "Mean number fecal pellets per pot", "setting": "[2]; [10]", "result": 15},
      {"measurement": "Mean number of damaged seeds per pot", "setting": "[2]; [10]", "result": 3.3},
      {"measurement": "Mean number of dead slugs per pot", "setting": "[2]; [10]", "result": 0.5},
      {"measurement": "Mean number of plants present per pot", "setting": "[2]; [10]", "result": 3.8},
      {"measurement": "Mean number fecal pellets per pot", "setting": "[2]; [11]", "result": 89},
      {"measurement": "Mean number of damaged seeds per pot", "setting": "[2]; [11]", "result": 21.0},
      {"measurement": "Mean number of dead slugs per pot", "setting": "[2]; [11]", "result": 1.3},
      {"measurement": "Mean number of plants present per pot", "setting": "[2]; [11]", "result": 6.0},
      {"measurement": "Mean number fecal pellets per pot", "setting": "[2]; [12]", "result": 106},
      {"measurement": "Mean number of damaged seeds per pot", "setting": "[2]; [12]", "result": 23.8},
      {"measurement": "Mean number of dead slugs per pot", "setting": "[2]; [12]", "result": 1.3},
      {"measurement": "Mean number of plants present per pot", "setting": "[2]; [12]", "result": 8.8},
      {"measurement": "Mean number fecal pellets per pot", "setting": "[2]; [13]", "result": 114},
      {"measurement": "Mean number of damaged seeds per pot", "setting": "[2]; [13]", "result": 24.3},
      {"measurement": "Mean number of dead slugs per pot", "setting": "[2]; [13]", "result": 1.5},
      {"measurement": "Mean number of plants present per pot", "setting": "[2]; [13]", "result": 9.0},
      {"measurement": "damaged seeds relative to the untreated control", "setting": "[2]; Example 1, 10 ml/kg, after 3, 7 and 14 days", "result": "significantly less damaged seeds"},
      {"measurement": "protection / slug controlling effect (conclusion)", "setting": "[2]; Example 1, winter wheat seed treatment, dosages tested", "result": "no sufficient protection to the plants"},
      {"measurement": "number of plants present relative to untreated", "setting": "[3]; Example 2", "result": "no significantly different results"},
      {"measurement": "phytotoxic effect on the seeds", "setting": "[3]; Example 2", "result": "phytotoxic effect on the seeds"},
      {"measurement": "result of seed treatment against slugs (conclusion)", "setting": "[3]; Example 2", "result": "does not give the desired effect"},
      {"measurement": "percentage of damaged seeds after 7 days", "setting": "[3]; Example 2, 10 ml formulated per kg seed", "result": 31, "unit": "%"},
      {"measurement": "Mean number of damaged seeds per pot", "setting": "[3]; [14]", "result": 2.8},
      {"measurement": "Mean number of dead slugs per pot", "setting": "[3]; [14]", "result": 0},
      {"measurement": "Mean number of damaged seeds per pot", "setting": "[3]; [15]", "result": 6.0},
      {"measurement": "Mean number of dead slugs per pot", "setting": "[3]; [15]", "result": 0.3},
      {"measurement": "Mean number of damaged seeds per pot", "setting": "[3]; [16]", "result": 12.5},
      {"measurement": "Mean number of dead slugs per pot", "setting": "[3]; [16]", "result": 0.8},
      {"measurement": "number of damaged seeds relative to the untreated seed", "setting": "[3]; Example 2, two days after the start", "result": "significant reduction in the number of damaged seeds"},
      {"measurement": "Mean number of fecal pellets per pot", "setting": "[3]; dosage 10 ml, 2 days", "result": 11},
      {"measurement": "Mean number of plants present per pot", "setting": "[3]; dosage 10 ml, 2 days", "result": 0.3},
      {"measurement": "Mean number of fecal pellets per pot", "setting": "[3]; dosage 10 ml, 3 days", "result": 30},
      {"measurement": "Mean number of plants present per pot", "setting": "[3]; dosage 10 ml, 3 days", "result": 1.3},
      {"measurement": "Mean number of fecal pellets per pot", "setting": "[3]; dosage 10 ml, 7 days", "result": 69},
      {"measurement": "Mean number of plants present per pot", "setting": "[3]; dosage 10 ml, 7 days", "result": 4.5},
      {"measurement": "number of utilizable plants after 7 days", "setting": "[3]; dosage 10 ml, 7 days", "result": 2.0}
    ]}
  ]
}
